# Assay results taken from US4363923A, “4-Halgeno-oxetan-2-ones and process for their production” (Ciba-Geigy Corporation, priority 1980, dated 1982).
# How the values were obtained:
# Assay type in all cases: cell-based
# Ulothrix subtilissima = test: Test demonstrating algistatic activity; details: Klebsormidium subtilissimum, 504 h, 3 week incubation, shaking water bath, read-out: Minimum inhibitory Concentration, MIC
# Method: (§1) The organisms against which the compounds are to be tested are grown in an Erlenmeyer flask in a nutrient medium under sterile conditions on a shaking water bath at 18° C. with exposure (14 hours in light alternating with 10 hours in the dark).
# (§2) Tests are carried out against three algae, namely the blue algae
# (b) the simple filament-forming Ulothrix subtilissima (B) generally found at colder times of the year in rapidly flowing water;
# (§3) The composition of the medium is as follows (according to Algae broth, Difco Laboratories):
# (§4) dissolved in 1 liter of distilled water. The nutrient medium treated with the biocide is innoculated with the respective algae suspension such that a final dilution of 1/100 (algae divided with a stirrer) is attained. Evaluation is made after a 3 week incubation in the Erlenmeyer flask on a shaking water bath.
# [1] = tested on: mixed culture of slime-forming bacteria; test: Bactericidal test on a mixed culture of slime-forming bacteria in saline; details: 30 ppm, start 10^7 organisms/ml in saline
# Method: A mixed culture of slime-forming bacteria including Pseudomonas aeruginosa, Enterobacter aerogenes, Escherichia coli, Proteus vulgaris, Bacillus mycoides and Staphylococcus aureus in saline containing 10^7 organisms/ml was treated with 30 ppm of the product of Example 2.
# Phormidium foveolarum = test: Test demonstrating algistatic activity; details: Nodosilinea foveolarum, 504 h, 3 week incubation, shaking water bath, read-out: Minimum inhibitory Concentration, MIC
# Method: as §1, §2
# (a) Phormidium foveolarum (A) which lives in polluted water or moist earth and forms trichomes;
# as §3, §4
# Tribonema aequale = test: Test demonstrating algistatic activity; details: 504 h, 3 week incubation, shaking water bath, read-out: Minimum inhibitory Concentration, MIC
# Method: as §1, §2
# and the algae with brown chromatophors
# (c) the widespread, unbranched filament-forming Tribonema aequale (C) occurring in bodies of water especially in the spring at low temperature or in the autumn, even in mild winters.
# as §3, §4
smiles,measurement,setting,value
"O=C1CC(Cl)(CC(Cl)(Cl)Cl)O1 (centres unmarked) [Example 2, 4-chloro-4-(2,2,2-trichloroethyl)oxetan-2-one]",MIC,Ulothrix subtilissima,30 µg/mL
same,number of organisms reduced to,[1]; after one hour,10^2 organisms/ml
same,killing of bacteria,[1]; within 24 hours,all the bacteria had been killed
same,MIC,Phormidium foveolarum,30 µg/mL
same,MIC,Tribonema aequale,30 µg/mL
